Marks after values point to notes of the source that are not given here.

Consider two molecules from patent US20250120943A1, “RIFAMYCIN OPHTHALMIC COMPOSITION AND USE THEREOF” (AMD THERAPEUTICS LLC, priority 2022, published 2025).

For series [1] the following is noted: Rabbit, 0.5%, 50 μL, 250 μg; Sigurdsson et al. 2007; cited from earlier work.
Series [2] can be described thus: Retina exposure level of rifampicin after topical eye drops (LC/MS). The class given is in vivo, Sprague-Dawley rats. To be noted: rat, topical eye drops 0.25% rifampicin (Ex. 1A), average of n = 3.
Method: The remaining two rats received the same application, but 10 drops of the eye drops, in each eye under isoflurane sedation. A single drop contained 5 μL of the above-described formulation, and application of each drug drop was carried out with intervals of 30 minutes. After the eye drop application, the retina was excised from each rat under a dissection microscope. In addition, “non-treated” negative controls were used, and the retina was excised from two rats without performing any treatments on the rats. The retina was placed in a 1.5-ml microcentrifuge tube (1 retina/tube), and was fully washed with DPBS. After completion of the washing procedures, the retinal tissues in the microcentrifuge tube were frozen in dry ice, and were then preserved for quantification by LC/MS analysis.
At time points of 1 hour, 3 hours, and 7 hours after the application of the eye drops, the retinal tissues were excised from the rats under a dissection microscope. In addition, “non-treated” negative controls were used, and the retina was excised from one rat without performing any treatments on the rats. The retina was placed in a 1.5-ml microcentrifuge tube (1 retina/tube), and was fully washed with DPBS. After completion of the washing procedures, the retinal tissues in the microcentrifuge tube were frozen in dry ice, and were then preserved for quantification by LC/MS analysis. […]
Series [3] has as its system Neovascularization in retina of oxygen-induced retinopathy rat models. Kind of series: Oxygen-induced retinopathy rat model, capillaries counted in histology sections. The following applies: vehicle only 16.3. Type of series: in vivo, Sprague-Dawley rat.
Series [4] has as its system CNV induced in sub-retina tissues. Kind of series: Mouse laser-induced CNV model, CNV area by FITC-dextran fluorescence. The class given is in vivo, C57BL/6J mice. To be noted: for Average CNV area (%): n = 10, day 7, vehicle = 100. As for the experimental part: Eyes of C57BL/6J mice were laser irradiated, and CNV were induced in sub-retina tissues in the eyes. […] In 7 days after the laser irradiation, a FITC-dextran solution was administered to the tail vein. The eyeballs were removed under euthanasia, and the removed eyeballs were fixed with 4% paraformaldehyde phosphate buffer. The cornea, iris and lens were excised, and retinal tissues other than retinal pigment epithelium cells were stripped using a microspacer. The optic cups were divided into 4 to 6 sections using a corneal microscissor, and they were placed on a slide glass. […] The CNV areas were quantified using ImageJ (TABLES 11-1 and 11-2; Image software publicly available by NIH).

Series [5] in a line: Mouse pharmacokinetics after SC injection, sclera+sub-retina complex (LC/MS).
Method: This effective dosage and administration route was evaluated in dose escalation studies by using the mouse laser-induced CNV model. […] In 1 hr, 3 hr, 6 hr, and 18 hr after the SC injection, eyeballs were extracted. Tissue from the retina and tissue from the sclera+sub-retina complex were isolated and extracted. These tissues were immediately frozen in liquid nitrogen. The tissue was subjected to LC/MS analysis for quantitation. The detection limit was 0.25 ng/g tissue.

Turning to `C[C@@H]1C[C@H]2[C@@H]3CCC4=CC(=O)C=C[C@]4(C)[C@@]3(F)[C@@H](O)C[C@]2(C)[C@@]1(O)C(=O)CO` [Dexamethasone], in series [1], the “Drug amount detected in retina” value is “About 33 ng/1 g ng/1 g of retinal tissues”.
For `CO[C@H]1/C=C/O[C@@]2(C)Oc3c(C)c(O)c4c(O)c(c(/C=N/N5CCN(C)CC5)c(O)c4c3C2=O)NC(=O)/C(C)=C\C=C\[C@H](C)[C@H](O)[C@@H](C)[C@@H](O)[C@@H](C)[C@H](OC(C)=O)[C@@H]1C` [Rifampicin, rifampicin], the “Rifampicin extracted from retina” value in series [2] (3 drops of 5 μL at 30 min intervals) was 1,288* ng/1 g of tissues; in series [2] (10 drops of 5 μL at 30 min intervals), 2,939* ng/1 g of tissues. The “Average numbers of capillaries in high power field per eye” value is 7.78 in series [3] (0.25% rifampicin topical eye drop (Ex. 1A), three times daily P15-P19, n = 3, P value = 0.0058) and 9.28 in series [3] (0.5% rifampicin SC injection (Ex. 6A), 20 mg/kg once a day P15-P19, n = 3, P value = 0.0102). Besides, the “Dosage that significantly inhibited neovascularization (effective dosage)” value in series [4] (SC injection, mouse laser-induced CNV model) is 0.7 mg/kg. In addition, the “Average CNV area (%)” value in series [4] (SC once daily 0.2 mg/kg, P >0.05 (TABLE 11-1)) amounted to 90.17%; in series [4] (SC once daily 0.7 mg/kg, P 0.003 (TABLE 11-2)), 74.78%; in series [4] (SC once daily 0.7 mg/kg, P 0.045 (TABLE 11-1)), 81.00%; in series [4] (SC once daily 2 mg/kg, P 0.011 (TABLE 11-2)), 78.33%. The “Ave. rifampicin delivered to sclera + sub-retina complex” value in series [5] (SC 0.7 mg/kg, 18 hr, detection limit 0.25 ng/g tissue) is recorded as “BDL”. In addition, the “Share of rifampicin in sub-retina+sclera complex delivered to the sub-retina” value in series [5] (SC injection) was “approximately 70%”.
